Assay results as given in patent US11912668B2, “GCN2 and perk kinase inhibitors and methods of use thereof” (Deciphera Pharmaceuticals, LLC, priority 2020, dated 2024).
pIC50: −log10 of the molar value.

What was measured:
GCN2 kinase = GCN2 kinase (Homo sapiens (Human), UniProt Q9P2K8); assay: Biochemical assay for GCN2 (TR-FRET kinase activity assay); conditions: 1 mM ATP, 3-hour incubation
Procedure, shortened: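 TR-FRET assay with 2 nM GCN2, 130 nM GFP-eIF2α substrate, 0.2 mg/mL E. coli tRNA and 1 mM ATP; compounds (0.5% DMSO) reacted 3 h. Stopped with 20 mM EDTA plus 2 nM Tb-anti-peIF2α (pSer52), 60 min RT; 520/490 ratio converted to % inhibition, IC50 from four-parameter fit.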

PERK kinase = PERK kinase (Homo sapiens (Human), UniProt Q9NZJ5); assay: Biochemical assay for PERK (coupled pyruvate kinase/lactate dehydrogenase assay); conditions: 1 mM ATP, rate from 2-3 h time frame
Procedure, shortened: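 Coupled pyruvate kinase/lactate dehydrogenase readout of ATP hydrolysis via NADH oxidation (A340), 10 nM PERK, 0.25 mg/mL myelin basic protein, 1 mM ATP, pH 7.5 Tris/MgCl2 buffer, 1% DMSO. Absorbance followed 6 h at 30° C; rate from the 2-3 h window, normalised to no-compound and known-inhibitor controls, IC50 fitted.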

CCRF-CEM leukemia cells = assay: CCRF-CEM ASNase cell proliferation assay, phenotypic assay for cellular inhibition of GCN2; format: cell-based; conditions: Homo sapiens; ASNase treated CCRF-CEM cells, 1 mU/mL ASNase, 72 h
Procedure, shortened: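 Cells were seeded at ten thousand per well in RPMI-1640 with 10% heat-inactivated FBS and treated in triplicate with serially diluted compound plus 1 mU/mL ASNase for 72 h at 37 °C, 5% CO2. Resazurin was then added for 6 h, with fluorescence read at ex 540/em 600 nm to derive IC50 values.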

[1] = test system: phospho-GCN2 (Thr899) in HCT116 colorectal cancer cells; assay: HCT116 amino acid starved (-AA) phospho-GCN2 assay (Western blot); format: cell-based; conditions: Homo sapiens, HCT-116, 4 h, read-out: HCT116-AA pGCN2 Western Blot
Procedure, shortened: (§1)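 HCT116 cells switched to amino-acid-free EBSS (10% dialyzed FBS, 5.5 mM glucose, vitamins) with serial compound dilutions for 4 h at 37° C. Lysates Western blotted for phospho-GCN2 (Thr899), total GCN2, ATF4 and beta-actin; IC50 values derived from quantified bands.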

[2] = test system: ATF4 in HCT116 colorectal cancer cells; assay: HCT116 amino acid starved (-AA) ATF4 assay (Western blot); format: cell-based; conditions: Homo sapiens, HCT-116, 4 h
Procedure, shortened: as §1

[3] = test system: ATF4 in CCRF-CEM leukemia cells (PERK); assay: CCRF-CEM TG ATF4 ELISA, phenotypic assay for cellular inhibition of PERK preactivated by thapsigargin; format: cell-based; conditions: Homo sapiens; Thapsigargin (1 μM) stimulated CCRF-CEM cells
[4] = test system: ATF4 in H929 multiple myeloma cells; assay: H929 ATF4 ELISA assay (stimulation of cellular ATF4); format: cell-based; conditions: 4 h, no thapsigargin
Experimental: H929 multiple myeloma cells (catalog #CRL-9068) were obtained from the American Type Culture Collection (ATTC, Manassas, VA). Briefly, cells were grown in RPMI-1640 medium supplemented with 20% heat-inactivated fetal bovine serum (catalog #A3840002, ThermoFisher Scientific, Waltham, MA), 1% Penicillin/Streptomycin/L-Glutamine (catalog #10378016, ThermoFisher Scientific, Waltham, MA), and 0.05 mM 2-mercaptoethanol (catalog #21985-023, ThermoFisher Scientific, Waltham, MA) at 37° C., 5% CO2, and 95% humidity. Cells were expanded until reaching one million five hundred thousand cells per mL at which time they were subcultured or harvested for assay use. One million five hundred thousand cells per well in 1 mL complete growth medium were dispensed into 12-well plates and incubated overnight. A serial dilution of test compound was added, and cells were incubated at 37° C., 5% CO2, and 95% for four hours. Cells were lysed then ATF4 levels were measured using an ELISA assay (Proteintech, Rosemont, IL). Absorbance is measured at 450 nm and 544 nM using a Synergy2 or equivalent reader (Biotek, Winooski VT). Data were analyzed using PRISM software (Graphpad, San Diego, CA) to calculate fold stimulation of cellular ATF4 relative to vehicle treated control.

Chain of PERK kinase (Q9NZJ5 other isoform, or with tags, fused parts or gaps): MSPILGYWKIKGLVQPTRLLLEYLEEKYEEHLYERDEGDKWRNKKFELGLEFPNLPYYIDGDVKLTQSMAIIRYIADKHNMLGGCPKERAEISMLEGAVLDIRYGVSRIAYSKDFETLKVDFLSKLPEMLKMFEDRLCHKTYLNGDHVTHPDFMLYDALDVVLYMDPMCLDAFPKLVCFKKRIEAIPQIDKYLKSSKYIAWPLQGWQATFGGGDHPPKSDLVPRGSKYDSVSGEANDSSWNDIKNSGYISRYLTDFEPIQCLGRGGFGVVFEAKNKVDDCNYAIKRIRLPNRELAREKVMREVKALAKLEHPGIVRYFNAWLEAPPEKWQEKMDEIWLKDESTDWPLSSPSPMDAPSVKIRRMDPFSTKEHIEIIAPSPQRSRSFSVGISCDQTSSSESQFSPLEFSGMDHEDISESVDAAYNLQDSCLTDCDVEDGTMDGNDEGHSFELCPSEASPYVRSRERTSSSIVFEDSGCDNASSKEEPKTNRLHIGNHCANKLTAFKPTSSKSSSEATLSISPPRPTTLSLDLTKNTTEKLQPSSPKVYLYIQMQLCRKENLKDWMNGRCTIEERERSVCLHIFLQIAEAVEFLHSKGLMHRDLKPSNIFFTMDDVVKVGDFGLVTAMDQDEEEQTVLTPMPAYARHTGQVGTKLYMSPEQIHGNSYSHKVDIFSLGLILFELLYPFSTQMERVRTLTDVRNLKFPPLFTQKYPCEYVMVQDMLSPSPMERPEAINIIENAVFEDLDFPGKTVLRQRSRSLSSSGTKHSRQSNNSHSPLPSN
Chain of GCN2 kinase (Q9P2K8 whole entry): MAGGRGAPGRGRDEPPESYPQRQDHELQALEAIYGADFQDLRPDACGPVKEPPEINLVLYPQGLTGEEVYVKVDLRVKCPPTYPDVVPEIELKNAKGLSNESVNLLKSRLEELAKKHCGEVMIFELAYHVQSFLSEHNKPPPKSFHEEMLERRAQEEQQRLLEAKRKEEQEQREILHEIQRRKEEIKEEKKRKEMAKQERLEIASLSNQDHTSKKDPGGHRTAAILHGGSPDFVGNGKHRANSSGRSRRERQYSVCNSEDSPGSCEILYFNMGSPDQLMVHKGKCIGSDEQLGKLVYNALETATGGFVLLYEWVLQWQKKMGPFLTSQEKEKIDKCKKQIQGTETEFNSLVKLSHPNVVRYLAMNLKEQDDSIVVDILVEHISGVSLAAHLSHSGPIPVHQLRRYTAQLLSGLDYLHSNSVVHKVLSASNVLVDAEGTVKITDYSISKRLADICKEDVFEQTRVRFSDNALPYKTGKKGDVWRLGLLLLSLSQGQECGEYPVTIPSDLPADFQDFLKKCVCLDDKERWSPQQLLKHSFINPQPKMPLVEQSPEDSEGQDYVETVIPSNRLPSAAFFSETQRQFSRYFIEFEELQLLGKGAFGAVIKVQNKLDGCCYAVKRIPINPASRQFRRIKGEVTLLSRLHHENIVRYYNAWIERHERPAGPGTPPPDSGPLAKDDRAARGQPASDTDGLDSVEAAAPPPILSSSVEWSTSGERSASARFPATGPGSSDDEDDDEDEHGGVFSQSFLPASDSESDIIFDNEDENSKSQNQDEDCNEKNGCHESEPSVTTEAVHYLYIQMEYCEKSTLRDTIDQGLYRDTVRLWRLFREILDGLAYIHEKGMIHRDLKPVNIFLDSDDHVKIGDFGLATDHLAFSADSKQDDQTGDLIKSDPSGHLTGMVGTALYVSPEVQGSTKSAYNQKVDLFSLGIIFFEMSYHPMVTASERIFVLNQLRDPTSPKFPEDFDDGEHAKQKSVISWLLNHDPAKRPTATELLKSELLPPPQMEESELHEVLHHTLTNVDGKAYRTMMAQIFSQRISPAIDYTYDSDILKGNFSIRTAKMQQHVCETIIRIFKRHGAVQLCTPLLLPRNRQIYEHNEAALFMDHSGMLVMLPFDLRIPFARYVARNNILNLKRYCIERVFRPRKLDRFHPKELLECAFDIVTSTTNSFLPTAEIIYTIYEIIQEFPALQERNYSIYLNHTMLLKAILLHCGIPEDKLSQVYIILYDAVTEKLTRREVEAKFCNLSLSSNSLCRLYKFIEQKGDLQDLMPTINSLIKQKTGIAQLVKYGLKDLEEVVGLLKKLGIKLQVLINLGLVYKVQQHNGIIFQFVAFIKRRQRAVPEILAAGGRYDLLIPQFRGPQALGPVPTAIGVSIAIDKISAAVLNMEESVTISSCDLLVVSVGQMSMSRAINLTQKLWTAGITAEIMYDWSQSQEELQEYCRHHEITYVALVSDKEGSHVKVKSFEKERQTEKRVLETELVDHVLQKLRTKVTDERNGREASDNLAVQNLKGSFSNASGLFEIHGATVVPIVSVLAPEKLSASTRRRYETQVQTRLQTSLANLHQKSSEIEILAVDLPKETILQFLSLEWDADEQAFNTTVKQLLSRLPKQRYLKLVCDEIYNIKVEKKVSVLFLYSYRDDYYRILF

SMILES	pIC50 (GCN2 kinase)	pIC50 (PERK kinase)	pIC50 (CCRF-CEM leukemia cells)	pIC50 [1]	pIC50 [2]	pIC50 [3]	H929 NS ATF4 ELISA (fold stimulation of ATF4 relative to vehicle) [4]
CNc1cc2nc(C)c(-c3cc(F)cc(NS(=O)(=O)c4cc(Cl)cc(CO)c4Cl)c3)cc2cn1 [Example 25]	≥ 7.00	≥ 7.00	≥ 7.00	≥ 7.00	≥ 7.00	5.00 to 6.00	++ (“++” refers to an ATF4 stim greater than 5 fold and less than or equal to 10 fold)
CNc1cc2nc(C)c(-c3cccc(NS(=O)(=O)c4cc(Cl)cnc4OC)c3F)cc2cn1 [Example 31]	≥ 7.00	≥ 7.00	≥ 7.00	≥ 7.00	≥ 7.00	5.00 to 6.00	++ (“++” refers to an ATF4 stim greater than 5 fold and less than or equal to 10 fold)
CNc1ncc2cc(-c3cc(NS(=O)(=O)c4cc(Cl)cnc4OC)cc(F)c3F)c(NC)nc2n1 [Example 49]	≥ 7.00	6.30 to 7.00	≥ 7.00	≥ 7.00	6.30 to 7.00	5.00 to 6.00	+ (“+” refers to an ATF4 stim less than or equal to 5-fold)
CNc1nc2nc(N)ncc2cc1-c1cccc(NS(=O)(=O)c2cc(Cl)cnc2OC)c1F [Example 109, N-(3-(2-amino-7-(methylamino)pyrido[2,3-d]pyrimidin-6-yl)-2-fluorophenyl)-5-chloro-2-methoxypyridine-3-sulfonamide]	≥ 7.00	6.30 to 7.00	≥ 7.00	≥ 7.00	≥ 7.00	6.00 to 6.30	+++ (“+++” refers to an ATF4 stim greater than 10 fold and less than or equal to 20 fold)
CNc1nc2nc(Nc3cnn(C)c3)ncc2cc1-c1cccc(NS(=O)(=O)c2cc(Cl)cnc2OC)c1F [Example 110]	≥ 7.00	≥ 7.00	≥ 7.00	≥ 7.00	≥ 7.00	6.30 to 7.00	++ (“++” refers to an ATF4 stim greater than 5 fold and less than or equal to 10 fold)
CNc1cc2nc(N)c(-c3cccc(NS(=O)(=O)c4cc(Cl)cnc4OC)c3F)cc2cn1 [Example 128]	≥ 7.00	≥ 7.00	≥ 7.00	≥ 7.00	≥ 7.00	≥ 7.00	+++ (“+++” refers to an ATF4 stim greater than 10 fold and less than or equal to 20 fold)
CNc1ncc2cc(-c3cccc(NS(=O)(=O)c4cccc(CO)c4Cl)c3F)c(NC)nc2n1 [Example 151]	≥ 7.00	6.30 to 7.00	≥ 7.00	≥ 7.00	≥ 7.00	6.30 to 7.00	++ (“++” refers to an ATF4 stim greater than 5 fold and less than or equal to 10 fold)
CNc1ncc2cc(-c3cccc(NS(=O)(=O)c4cc(Cl)cc(CO)c4Cl)c3F)c(NC)nc2n1 [Example 175]	≥ 7.00	≥ 7.00	≥ 7.00	–	–	6.30 to 7.00	+++ (“+++” refers to an ATF4 stim greater than 10 fold and less than or equal to 20 fold)
CNc1ncc2cc(-c3cccc(NS(=O)(=O)c4cc(Cl)cc(CO)c4OC)c3F)c(NC)nc2n1 [Example 179]	≥ 7.00	≥ 7.00	≥ 7.00	–	–	6.30 to 7.00	+++ (“+++” refers to an ATF4 stim greater than 10 fold and less than or equal to 20 fold)
